Test results as given in US10039747B2, “Tetrahydrocyclopentapyrrole derivatives and a method for preparing the same” (Daewoong Pharmaceutical Co., Ltd., priority 2013, dated 2018).
pIC50: −log10 of the molar value.

Molecular target: T1, H+/K+-ATPase (Sus scrofa, UniProt P19156)
T1 construct: reaction buffer solution (60 mmol/l Tris-HCl buffer solution, pH 7.4) containing hog gastric vesicle; from tissue; host or cells: hog stomach (gastric vesicles, by centrifugation after Rabon et al. 1988)
Assay: Inhibition of proton pump (H+/K+-ATPase) activity in hog gastric vesicles
Format: biochemical
Settings: K+ specific H+/K+-ATPase activity, pH 7.4, 37° C. for 40 minutes, malachite green
Method: 1) Preparation of Gastric Vesicles
Gastric vesicles were prepared from hog stomach by centrifugation (Edd C. Rabon et al., Preparation of Gastric H^+,K^+-ATPase, Methods in enzymology, vol. 157 Academic Press Inc., (1988), pp. 649-654). The protein contents of the prepared gastric vesicles were quantified with a Bicinchoninic Acid (BCA) kit.
2) Measurement of Effect of Inhibiting Proton Pump (H^+/K^+-ATPase) Activity
The effect of inhibiting proton pump activity by the compound of the present invention was measured in a 96-well plate. In this experiment, K^+ specific H^+/K^+-ATPase activity was calculated based on the difference between H^+/K^+-ATPase activity in the presence of K^+ ions and H^+/K^+-ATPase activity in the absence of K^+ ions. In the 96-well plate, to negative and positive control groups, 0.5% dimethylsulfoxide (DMSO) in buffer was added, and to the test groups, the compound of the present invention was added. All the analyses were conducted at room temperature with the reaction volume of 100 μl. To a reaction buffer solution (60 mmol/l Tris-HCl buffer solution, pH 7.4) containing hog gastric vesicle, DMSO and each concentration of compound were added, and then, 10 μl of a 10 mmol/l adenosine triphosphate tris buffer solution (60 mmol/l Tris-HCl buffer solution, pH 7.4) was added to initiate an enzyme reaction. The enzyme reaction was conducted at 37° C. for 40 minutes, 50 μl of a malachite green solution (0.12% malachite green solution, 5.8% ammonium molybdate and 11% tween 20 were mixed at a ratio of 100:67:2 in 6.2 N sulfuric acid) was added to stop the reaction, and 50 μl of 15.1% sodium citrate was added. During the reaction, the amount of monophosphate (Pi) was measured at 570 nm using micro plate reader (FLUOstar Omega, BMG Company). Inhibition rate (%) was measured from the activity values of the control groups and the activity values of various concentrations of the test compound, and IC50 of the test compound was calculated from each % inhibition value of the compound using Logistic 4-parameter function of Sigmaplot 8.0 program.

T1 sequence (P19156 2-1034 limits assumed): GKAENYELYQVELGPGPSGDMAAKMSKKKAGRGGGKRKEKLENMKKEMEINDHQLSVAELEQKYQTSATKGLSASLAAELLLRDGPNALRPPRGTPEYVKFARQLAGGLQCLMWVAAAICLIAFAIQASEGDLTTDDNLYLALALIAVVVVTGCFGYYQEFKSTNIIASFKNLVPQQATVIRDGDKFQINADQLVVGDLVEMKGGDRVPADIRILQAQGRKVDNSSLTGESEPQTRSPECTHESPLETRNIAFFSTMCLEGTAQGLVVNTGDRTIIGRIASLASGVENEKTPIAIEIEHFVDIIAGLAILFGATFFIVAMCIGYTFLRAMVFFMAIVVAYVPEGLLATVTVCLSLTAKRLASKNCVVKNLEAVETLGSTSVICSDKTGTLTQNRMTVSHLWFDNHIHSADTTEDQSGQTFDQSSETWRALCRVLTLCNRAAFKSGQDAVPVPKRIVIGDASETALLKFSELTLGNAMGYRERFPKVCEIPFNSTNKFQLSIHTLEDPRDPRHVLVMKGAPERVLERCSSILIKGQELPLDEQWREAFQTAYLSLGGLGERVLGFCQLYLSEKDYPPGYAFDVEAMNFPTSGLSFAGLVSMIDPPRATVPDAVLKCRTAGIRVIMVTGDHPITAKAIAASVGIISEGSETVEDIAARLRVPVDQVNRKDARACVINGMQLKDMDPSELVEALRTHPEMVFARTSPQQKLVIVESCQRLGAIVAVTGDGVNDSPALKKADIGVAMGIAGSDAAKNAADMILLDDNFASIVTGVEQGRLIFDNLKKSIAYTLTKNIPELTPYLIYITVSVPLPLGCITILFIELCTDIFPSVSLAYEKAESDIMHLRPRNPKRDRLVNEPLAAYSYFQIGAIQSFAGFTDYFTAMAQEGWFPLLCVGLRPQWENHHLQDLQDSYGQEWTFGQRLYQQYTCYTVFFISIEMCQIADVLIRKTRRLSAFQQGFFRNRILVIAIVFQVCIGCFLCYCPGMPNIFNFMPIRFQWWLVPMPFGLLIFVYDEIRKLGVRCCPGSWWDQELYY
T1 sequence (P18434 whole entry partner): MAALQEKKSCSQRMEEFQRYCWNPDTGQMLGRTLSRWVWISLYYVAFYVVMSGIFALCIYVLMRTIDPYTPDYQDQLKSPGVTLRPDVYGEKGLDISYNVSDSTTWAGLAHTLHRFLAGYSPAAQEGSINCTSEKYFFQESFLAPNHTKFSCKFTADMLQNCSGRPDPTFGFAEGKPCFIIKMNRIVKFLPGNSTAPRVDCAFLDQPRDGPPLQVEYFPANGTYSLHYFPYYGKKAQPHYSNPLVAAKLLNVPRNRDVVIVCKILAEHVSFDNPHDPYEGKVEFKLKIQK

| Structure (SMILES) | pIC50 |
| --- | --- |
| CN(C)C1CCCc2c1cn(S(=O)(=O)c1cccnc1)c2-c1ccccc1F (stereo not shown) [Example 144, 1-(2-fluorophenyl)-N,N-dimethyl-2-(pyridin-3-ylsulfonyl)-4,5,6,7-tetrahydro-2H-isoindole-4-amine] | 5.10 |
| CNC1CCc2c1cn(S(=O)(=O)c1c(Cl)cccc1Cl)c2-c1ccccc1F (stereo not shown) [Example 75, 2-((2,6-dichlorophenyl)sulfonyl)-1-(2-fluorophenyl)-N-methyl-2,4,5,6-tetrahydrocyclopenta[c]pyrrol-4-amine] | 5.67 |
| CNC1CCc2c1cn(S(=O)(=O)c1cccc(C(=O)N3CCOCC3)c1)c2-c1ccccc1F (stereo not shown) [Example 58, (3-((1-(2-fluorophenyl)-4-(methylamino)-5,6-dihydrocyclopenta[c]pyrrol-2(4H)-yl)sulfonyl)phenyl)(morpholino)methanone] | 5.24 |
| CNC1CCCc2c1cn(S(=O)(=O)c1cccc(OC(F)F)c1)c2-c1ccccc1F (stereo not shown) [Example 123, 2-((3-(difluoromethoxy)phenyl)sulfonyl)-1-(2-fluorophenyl)-N-methyl-4,5,6,7-tetrahydro-2H-isoindole-4-amine] | 5.70 |
| CNC1CCc2c1cn(S(=O)(=O)c1ccc(C#N)cc1Cl)c2-c1ccccc1F (stereo not shown) [Example 67, 3-chloro-4-((1-(2-fluorophenyl)-4-(methylamino)-5,6-dihydrocyclopenta[c]pyrrol-2(4H)-yl)sulfonyl)benzonitrile] | 5.90 |
| CNC1CCCc2c1cn(S(=O)(=O)c1cccnc1)c2-c1ccccc1C (stereo not shown) [Example 132, N-methyl-2-(pyridin-3-ylsulfonyl)-1-(o-tolyl)-4,5,6,7-tetrahydro-2H-isoindole-4-amine] | 5.10 |
| CNC1CCCc2c1cn(S(=O)(=O)c1cc(Cl)ccc1F)c2-c1ccccc1F (stereo not shown) [Example 126, 2-((5-chloro-2-fluorophenyl)sulfonyl)-1-(2-fluorophenyl)-N-methyl-4,5,6,7-tetrahydro-2H-isoindole-4-amine] | 5.40 |
| CNC1CCc2c1cn(S(=O)(=O)c1ccccc1Cl)c2-c1ccc(C)cc1F (stereo not shown) [Example 48, 2-((2-chlorophenyl)sulfonyl)-1-(2-fluoro-4-methylphenyl)-N-methyl-2,4,5,6-tetrahydrocyclopenta[c]pyrrol-4-amine] | 6.00 |
| CNC1CCc2c1cn(S(=O)(=O)c1ccccc1Cl)c2-c1cc(Cl)ccc1Cl (stereo not shown) [Example 50, 2-((2-chlorophenyl)sulfonyl)-1-(2,5-dichlorophenyl)-N-methyl-2,4,5,6-tetrahydrocyclopenta[c]pyrrol-4-amine] | 5.98 |
| CNC1CCCc2c1cn(S(=O)(=O)c1cccnc1)c2-c1ccccc1F (stereo not shown) [Example 131, 1-(2-fluorophenyl)-N-methyl-2-(pyridin-3-ylsulfonyl)-4,5,6,7-tetrahydro-2H-isoindole-4-amine] | 5.82 |
| CNC1CCCCc2c1cn(S(=O)(=O)c1cccnc1)c2-c1ccccc1F (stereo not shown) [Example 146, 1-(2-fluorophenyl)-N-methyl-2-(pyridin-3-ylsulfonyl)-2,4,5,6,7,8-hexahydrocyclohepta[c]pyrrol-4-amine] | 5.35 |
| CNC1CCc2c1cn(Cc1cccc(F)c1)c2-c1ccccc1F (stereo not shown) [Example 108, 2-(3-fluorobenzyl)-1-(2-fluorophenyl)-N-methyl-2,4,5,6-tetrahydrocyclopenta[c]pyrrol-4-amine] | 5.25 |
| CNC1CCc2c1cn(S(=O)(=O)c1cc(Cl)c(Cl)cc1Cl)c2-c1ccccc1 (stereo not shown) [Example 81, N-methyl-1-phenyl-2-((2,4,5-trichlorophenyl)sulfonyl)-2,4,5,6-tetrahydrocyclopenta[c]pyrrol-4-amine] | 5.94 |
| CNC1CCc2c1cn(S(=O)(=O)c1cc(Cl)c(Cl)cc1Cl)c2-c1ccccc1F (stereo not shown) [Example 84, 1-(2-fluorophenyl)-N-methyl-2-((2,4,5-trichlorophenyl)sulfonyl)-2,4,5,6-tetrahydrocyclopenta[c]pyrrol-4-amine] | 6.41 |
| CCNC1CCCCc2c1cn(S(=O)(=O)c1cccc(Cl)c1)c2-c1ccccc1F (stereo not shown) [Example 147, 2-((3-chlorophenyl)sulfonyl)-N-ethyl-1-(2-fluorophenyl)-2,4,5,6,7,8-hexahydrocyclohepta[c]pyrrol-4-amine] | 5.15 |
| CNC1CCc2c1cn(S(=O)(=O)c1ccccc1)c2-c1ccc(C)cc1F (stereo not shown) [Example 44, 1-(2-fluoro-4-methylphenyl)-N-methyl-2-(phenylsulfonyl)-2,4,5,6-tetrahydrocyclopenta[c]pyrrol-4-amine] | 6.19 |

Next, values leading:

| pIC50 | Structure (SMILES) |
| --- | --- |
| 6.32 | CNC1CCc2c1cn(S(=O)(=O)c1cccc(Cl)c1)c2-c1ccc(F)c(F)c1 (stereo not shown) [Example 24, 2-((3-chlorophenyl)sulfonyl)-1-(3,4-difluorophenyl)-N-methyl-2,4,5,6-tetrahydrocyclopenta[c]pyrrol-4-amine] |
| 6.37 | CNC1CCc2c1cn(S(=O)(=O)c1cccc(Cl)c1)c2-c1ccc(C)cc1F (stereo not shown) [Example 18, 2-((3-chlorophenyl)sulfonyl)-1-(2-fluoro-4-methylphenyl)-N-methyl-2,4,5,6-tetrahydrocyclopenta[c]pyrrol-4-amine] |
| 6.12 | CNC1CCc2c1cn(S(=O)(=O)c1cccc(Cl)c1)c2-c1cccc(C)c1 (stereo not shown) [Example 8, 2-((3-chlorophenyl)sulfonyl)-N-methyl-1-(m-tolyl)-2,4,5,6-tetrahydrocyclopenta[c]pyrrol-4-amine] |
| 6.46 | CNC1CCc2c1cn(S(=O)(=O)c1cccc(C)c1)c2-c1ccc(C)cc1F (stereo not shown) [Example 52, 1-(2-fluoro-4-methylphenyl)-N-methyl-2-(m-tolylsulfonyl)-2,4,5,6-tetrahydrocyclopenta[c]pyrrol-4-amine] |
| 5.86 | CNC1CCc2c1cn(S(=O)(=O)c1cccc(Cl)c1)c2-c1ccc(OC(F)(F)F)cc1 (stereo not shown) [Example 17, 2-((3-chlorophenyl)sulfonyl)-N-methyl-1-(4-(trifluoromethoxy)phenyl)-2,4,5,6-tetrahydrocyclopenta[c]pyrrol-4-amine] |
| 6.21 | CNC1CCc2c1cn(S(=O)(=O)c1cccc(Cl)c1)c2-c1ccccc1C (stereo not shown) [Example 4, 2-((3-chlorophenyl)sulfonyl)-N-methyl-1-(o-tolyl)-2,4,5,6-tetrahydrocyclopenta[c]pyrrol-4-amine] |
| 5.87 | CNC1CCc2c1cn(S(=O)(=O)c1cccc(Cl)c1)c2-c1ccoc1 (stereo not shown) [Example 31, 2-((3-chlorophenyl)sulfonyl)-1-(furan-3-yl)-N-methyl-2,4,5,6-tetrahydrocyclopenta[c]pyrrol-4-amine] |
| 5.41 | CNC1CCc2c1cn(S(=O)(=O)c1cccc(Cl)c1)c2-c1ccc(N2CCOCC2)nc1 (stereo not shown) [Example 41, 2-((3-chlorophenyl)sulfonyl)-N-methyl-1-(6-morpholinopyridin-3-yl)-2,4,5,6-tetrahydrocyclopenta[c]pyrrol-4-amine] |
| 6.08 | CNC1CCc2c1cn(S(=O)(=O)c1cccc(Cl)c1)c2-c1cccc(F)c1 (stereo not shown) [Example 9, 2-((3-chlorophenyl)sulfonyl)-1-(3-fluorophenyl)-N-methyl-2,4,5,6-tetrahydrocyclopenta[c]pyrrol-4-amine] |
| 6.19 | CNC1CCc2c1cn(S(=O)(=O)c1cccc(F)c1)c2-c1cc(Cl)ccc1Cl (stereo not shown) [Example 51, 1-(2,5-dichlorophenyl)-2-((3-fluorophenyl)sulfonyl)-N-methyl-2,4,5,6-tetrahydrocyclopenta[c]pyrrol-4-amine] |
| 6.39 | CNC1CCc2c1cn(S(=O)(=O)c1cccc(OC)c1)c2-c1ccc(C)cc1F (stereo not shown) [Example 54, 1-(2-fluoro-4-methylphenyl)-2-((3-methoxyphenyl)sulfonyl)-N-methyl-2,4,5,6-tetrahydrocyclopenta[c]pyrrol-4-amine] |
| 5.38 | CNC1CCCc2c1cn(S(=O)(=O)c1cccc(C(F)(F)F)c1)c2-c1ccccc1F (stereo not shown) [Example 124, 1-(2-fluorophenyl)-N-methyl-2-((3-(trifluoromethyl)phenyl)sulfonyl)-4,5,6,7-tetrahydro-2H-isoindole-4-amine] |
| 6.23 | CNC1CCc2c1cn(S(=O)(=O)c1cccc(OC)c1)c2-c1cc(Cl)ccc1Cl (stereo not shown) [Example 55, 1-(2,5-dichlorophenyl)-2-((3-methoxyphenyl)sulfonyl)-N-methyl-2,4,5,6-tetrahydrocyclopenta[c]pyrrol-4-amine] |
| 5.35 | CNC1CCCc2c1cn(S(=O)(=O)c1cccc(OC(F)(F)F)c1)c2-c1ccccc1F (stereo not shown) [Example 125, 1-(2-fluorophenyl)-N-methyl-2-((3-(trifluoromethoxy)phenyl)sulfonyl)-4,5,6,7-tetrahydro-2H-isoindole-4-amine] |
| 5.98 | CNC1CCc2c1cn(S(=O)(=O)c1cccc(Cl)c1)c2-c1cnn(C)c1 (stereo not shown) [Example 30, 2-((3-chlorophenyl)sulfonyl)-N-methyl-1-(1-methyl-1H-pyrazol-4-yl)-2,4,5,6-tetrahydrocyclopenta[c]pyrrol-4-amine] |
